Measurements as given in patent US20160206645A1, “COMBINATION THERAPIES FOR TREATMENT OF HCV” (priority 2015, published 2016).

How the values were obtained:
[1] = Plasma PK parameters at Week 2 and Week 8, interim analysis (Example 4); type: in vivo, human; design: AUC: concentration or dose not given beside the values; settings: for Cmax / AUC: human
Experimental: Methods: HCV treatment-naïve or (peg)IFN±ribavirin treatment-experienced GT1/4-infected cirrhotic pts≧18 yrs with Child-Pugh (CP) score<7 (Class A) with evidence of portal hypertension or 7-9 (Class B) were enrolled. Pts received 12 wks of SMV (150 mg once daily [QD]), DCV (60 mg QD) and SOF (400 mg QD). Primary efficacy endpoint: sustained virologic response 12 wks after end of treatment (EOT, SVR12). Key secondary endpoints: SVR4, on-treatment failure, viral relapse, PK and safety.

[2] = Pharmacokinetic analysis at week 2 and week 8 (Example 5); type: in vivo, human
[3] = plasma, oral, Week 2, Child-Pugh A (n = 19)
[4] = plasma, oral, Week 2, Child-Pugh B (n = 9)
[5] = plasma, oral, Week 8, Child-Pugh A (n = 18)
[6] = plasma, oral, Week 8, Child-Pugh B (n = 9)
[7] = in vivo, Week 2, Child-Pugh A (n = 19), plasma
[8] = in vivo, Week 2, Child-Pugh B (n = 9), plasma
[9] = in vivo, Week 8, Child-Pugh A (n = 18), plasma
[10] = in vivo, Week 8, Child-Pugh B (n = 9), plasma

Compound	Mean exposures within groups and at Wk2 vs Wk8 ([1]; CP A and CP B)	Cmax [1, 3] [ng/mL]	AUC [1, 4] [ng·h/mL]	Cmax [1, 4] [ng/mL]	AUC [1, 5] [ng·h/mL]	Cmax [1, 5] [ng/mL]	AUC [1, 6] [ng·h/mL]	Cmax [1, 6] [ng/mL]	mean exposure, higher in Child-Pugh B subjects than in Child-Pugh A subjects ([2]; treatment with SMV+SOF+DCV) [fold]	also measured
COC(=O)N[C@H](C(=O)N1CCC[C@H]1c1nc(-c2ccc(-c3ccc(-c4c[nH]c([C@@H]5CCCN5C(=O)[C@@H](NC(=O)OC)C(C)C)n4)cc3)cc2)c[nH]1)C(C)C [Daclatasvir, daclatasvir]	similar	1150	14200	958	15600	1070	13500	854		AUC, mean ([1]; Week 2, Child-Pugh A (n = 19), plasma): 16022 ng·h/mL; mean exposure in Child-Pugh A and Child-Pugh B subjects ([2]; treatment with SMV+SOF+DCV): similar
C[C@@]1(F)[C@H](O)[C@@H](CO)O[C@H]1n1ccc(=O)[nH]c1=O [GS-331007]										mean exposure in Child-Pugh A and Child-Pugh B subjects ([2]; in vivo): similar
COc1ccc2c(O[C@@H]3C[C@H]4C(=O)N[C@]5(C(=O)NS(=O)(=O)C6CC6)C[C@H]5/C=C\CCCCN(C)C(=O)[C@@H]4C3)cc(-c3nc(C(C)C)cs3)nc2c1C [Simeprevir, simeprevir]		6980	144000	7950	98600	6030	176000	8840	2.2	Mean exposures for both groups, Wk2 vs Wk8 ([1]; CP A and CP B): comparable; Mean SMV exposure (AUC), higher in CP B vs CP A pts ([1]; Wk2): 1.3 fold; individual pt exposures in the CP B group ([1]; compared with CP A): within the range observed for CP A; AUC [1, 3]: 114000 ng·h/mL
CC(C)OC(=O)[C@H](C)N[P@](=O)(OC[C@H]1O[C@@H](n2ccc(=O)[nH]c2=O)[C@](C)(F)[C@@H]1O)Oc1ccccc1 [Sofosbuvir, sofosbuvir]	similar								1.4	AUC [1, 7]: 2860 ng·h/mL; Cmax [1, 7]: 1570 ng/mL; AUC [1, 8]: 3770 ng·h/mL; Cmax [1, 8]: 1740 ng/mL; AUC [1, 9]: 2730 ng·h/mL; Cmax [1, 9]: 1280 ng/mL; AUC [1, 10]: 3770 ng·h/mL; Cmax [1, 10]: 1420 ng/mL
